{
  "source": "patent US20100151050A1",
  "about": "“Method for evaluation of compound using RSK1” (priority 2005, published 2010)",
  "system": "p53-negative cells (TOV21G-shp53, A549-shp53, MCF7-shp53, U2OS-shp53, dominant negative U2OS-mtp53)",
  "assay": "Cell viability by MTT assay after RSK1 siRNA lipofection, p53-negative cells",
  "type": "cell-based",
  "details": "p53-negative cells with siRNA of RSK1, 96 hours",
  "procedure": "First, as p53-positive cells, prepared were TOV21G, A549, MCF7 and U2OS cells. As p53-negative cells, prepared were TOV21G-shp53, A549-shp53, MCF7-shp53 and U2OS-shp53 by introducing shRNA of p53 into the above-mentioned four types of cells. Further, dominant negative U2OS-mtp53 cells were also prepared by introducing V157Fp53 into U2OS cells.\nNext, siRNA of RSK1 was introduced into the above cells according to a lipofection method, and the cells were incubated in a 10% FCS-containing D-MEM medium (10% FCS-containing MacCoy's 5A medium for U2OS cells) in the presence or absence of cisplatin (CDDP) for 96 hours, and then their viability was measured through MTT assay. As the siRNA of RSK1, used was a mixture of the following three sequences.",
  "data": [
    {"smiles": "N.N.[Cl][Pt][Cl]", "note": "[cisplatin]", "values": [
      {"measurement": "effect of cisplatin under RSK1 expression inhibition", "result": "enhanced"}
    ]}
  ]
}
